Common to all, as to assay: [3H]-dTTP incorporation into poly(dA)/oligo(dT)[…]
What all share (format): biochemical

Test [1] deals with T1, human pol λ (Homo sapiens, UniProt Q9UGP5).
T1 construct: gene POLL; recombinant, His-tagged
T1 sequence (Q9UGP5 1-575): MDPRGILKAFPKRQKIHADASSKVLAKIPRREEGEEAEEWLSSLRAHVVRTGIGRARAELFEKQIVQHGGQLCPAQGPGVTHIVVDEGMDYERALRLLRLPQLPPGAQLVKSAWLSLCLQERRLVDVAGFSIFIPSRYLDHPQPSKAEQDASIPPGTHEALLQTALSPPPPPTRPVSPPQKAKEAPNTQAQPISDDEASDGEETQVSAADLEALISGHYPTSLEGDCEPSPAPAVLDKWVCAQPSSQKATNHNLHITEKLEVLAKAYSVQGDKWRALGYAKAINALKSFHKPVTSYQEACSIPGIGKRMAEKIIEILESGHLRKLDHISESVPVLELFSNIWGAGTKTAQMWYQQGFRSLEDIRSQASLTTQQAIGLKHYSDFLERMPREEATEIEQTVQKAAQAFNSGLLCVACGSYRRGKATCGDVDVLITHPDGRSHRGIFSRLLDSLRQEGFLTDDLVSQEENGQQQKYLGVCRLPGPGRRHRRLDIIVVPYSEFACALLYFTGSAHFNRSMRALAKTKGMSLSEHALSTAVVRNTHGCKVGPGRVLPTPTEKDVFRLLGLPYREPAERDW
As to conditions: read-out: relative pol activity at 100 μM.

The next test has as its target T2, calf pol α (Bos taurus, UniProt A0AAA9THK8).
T2 construct: gene POLA1; with DNA polymerase alpha subunit B; DNA primase small subunit; DNA primase large subunit
The following applies: read-out: relative pol activity at 100 μM.

Test [2] has as its target T3, human pol κ (Homo sapiens, UniProt Q9UBT6).
T3 construct: gene POLK; truncated, residues 1-560, C-terminal 6xHis tag, produced in E. coli
T3 sequence (Q9UBT6 1-560): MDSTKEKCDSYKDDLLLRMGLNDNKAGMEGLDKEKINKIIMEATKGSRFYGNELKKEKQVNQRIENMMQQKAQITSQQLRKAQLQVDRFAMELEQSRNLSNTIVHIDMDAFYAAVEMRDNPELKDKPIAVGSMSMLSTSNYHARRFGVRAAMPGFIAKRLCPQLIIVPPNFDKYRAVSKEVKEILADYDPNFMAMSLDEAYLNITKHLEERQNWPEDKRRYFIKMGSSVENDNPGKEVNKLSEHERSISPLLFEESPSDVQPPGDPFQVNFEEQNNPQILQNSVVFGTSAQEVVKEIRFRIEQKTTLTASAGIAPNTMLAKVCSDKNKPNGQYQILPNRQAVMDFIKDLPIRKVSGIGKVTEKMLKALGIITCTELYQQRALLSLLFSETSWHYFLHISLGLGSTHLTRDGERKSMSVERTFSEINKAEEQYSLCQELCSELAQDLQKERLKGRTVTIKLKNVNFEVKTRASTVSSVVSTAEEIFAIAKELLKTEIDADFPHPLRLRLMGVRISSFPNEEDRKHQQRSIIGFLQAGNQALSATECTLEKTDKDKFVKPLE
As to conditions: read-out: relative pol activity at 100 μM.

Another test has as its target T4, human pol γ (Homo sapiens, UniProt P54098).
T4 construct: gene POLG
T4 sequence (P54098 1-1239): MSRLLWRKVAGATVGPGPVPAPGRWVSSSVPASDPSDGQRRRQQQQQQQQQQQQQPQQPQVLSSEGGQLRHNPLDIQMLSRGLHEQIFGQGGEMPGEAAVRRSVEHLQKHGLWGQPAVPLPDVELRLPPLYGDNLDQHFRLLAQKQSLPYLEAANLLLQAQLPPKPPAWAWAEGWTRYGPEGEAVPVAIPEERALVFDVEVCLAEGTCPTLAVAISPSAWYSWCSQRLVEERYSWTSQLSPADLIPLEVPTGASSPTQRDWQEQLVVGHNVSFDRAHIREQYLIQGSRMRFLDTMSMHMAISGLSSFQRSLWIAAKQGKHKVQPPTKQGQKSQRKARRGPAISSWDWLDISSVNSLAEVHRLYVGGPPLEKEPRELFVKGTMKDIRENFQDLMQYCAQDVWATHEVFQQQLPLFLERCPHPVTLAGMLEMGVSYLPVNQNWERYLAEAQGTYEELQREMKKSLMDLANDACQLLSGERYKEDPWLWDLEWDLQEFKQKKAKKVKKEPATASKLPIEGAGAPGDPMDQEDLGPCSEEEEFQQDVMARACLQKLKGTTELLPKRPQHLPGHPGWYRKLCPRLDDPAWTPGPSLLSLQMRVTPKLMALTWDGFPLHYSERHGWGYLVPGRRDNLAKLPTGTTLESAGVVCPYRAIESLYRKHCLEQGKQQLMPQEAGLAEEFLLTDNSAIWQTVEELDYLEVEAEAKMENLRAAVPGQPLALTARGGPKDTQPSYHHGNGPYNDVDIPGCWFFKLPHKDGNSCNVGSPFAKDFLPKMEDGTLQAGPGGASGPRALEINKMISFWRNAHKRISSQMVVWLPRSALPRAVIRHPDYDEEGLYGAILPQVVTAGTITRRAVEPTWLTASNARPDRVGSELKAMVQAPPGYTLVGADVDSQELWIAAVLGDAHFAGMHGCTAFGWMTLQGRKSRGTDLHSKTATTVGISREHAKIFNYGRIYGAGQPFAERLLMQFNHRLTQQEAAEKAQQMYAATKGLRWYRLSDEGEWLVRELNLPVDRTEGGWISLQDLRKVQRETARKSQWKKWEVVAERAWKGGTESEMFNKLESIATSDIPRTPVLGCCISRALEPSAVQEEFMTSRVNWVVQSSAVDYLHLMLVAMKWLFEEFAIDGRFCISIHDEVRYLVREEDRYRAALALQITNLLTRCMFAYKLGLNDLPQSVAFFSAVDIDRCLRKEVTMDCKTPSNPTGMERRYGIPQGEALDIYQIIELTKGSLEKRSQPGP

The target of test [3] is T3, human pol κ.
For test [4], the target named is T1, human pol λ.

T2 sequence (A0AAA9THK8 1-1487): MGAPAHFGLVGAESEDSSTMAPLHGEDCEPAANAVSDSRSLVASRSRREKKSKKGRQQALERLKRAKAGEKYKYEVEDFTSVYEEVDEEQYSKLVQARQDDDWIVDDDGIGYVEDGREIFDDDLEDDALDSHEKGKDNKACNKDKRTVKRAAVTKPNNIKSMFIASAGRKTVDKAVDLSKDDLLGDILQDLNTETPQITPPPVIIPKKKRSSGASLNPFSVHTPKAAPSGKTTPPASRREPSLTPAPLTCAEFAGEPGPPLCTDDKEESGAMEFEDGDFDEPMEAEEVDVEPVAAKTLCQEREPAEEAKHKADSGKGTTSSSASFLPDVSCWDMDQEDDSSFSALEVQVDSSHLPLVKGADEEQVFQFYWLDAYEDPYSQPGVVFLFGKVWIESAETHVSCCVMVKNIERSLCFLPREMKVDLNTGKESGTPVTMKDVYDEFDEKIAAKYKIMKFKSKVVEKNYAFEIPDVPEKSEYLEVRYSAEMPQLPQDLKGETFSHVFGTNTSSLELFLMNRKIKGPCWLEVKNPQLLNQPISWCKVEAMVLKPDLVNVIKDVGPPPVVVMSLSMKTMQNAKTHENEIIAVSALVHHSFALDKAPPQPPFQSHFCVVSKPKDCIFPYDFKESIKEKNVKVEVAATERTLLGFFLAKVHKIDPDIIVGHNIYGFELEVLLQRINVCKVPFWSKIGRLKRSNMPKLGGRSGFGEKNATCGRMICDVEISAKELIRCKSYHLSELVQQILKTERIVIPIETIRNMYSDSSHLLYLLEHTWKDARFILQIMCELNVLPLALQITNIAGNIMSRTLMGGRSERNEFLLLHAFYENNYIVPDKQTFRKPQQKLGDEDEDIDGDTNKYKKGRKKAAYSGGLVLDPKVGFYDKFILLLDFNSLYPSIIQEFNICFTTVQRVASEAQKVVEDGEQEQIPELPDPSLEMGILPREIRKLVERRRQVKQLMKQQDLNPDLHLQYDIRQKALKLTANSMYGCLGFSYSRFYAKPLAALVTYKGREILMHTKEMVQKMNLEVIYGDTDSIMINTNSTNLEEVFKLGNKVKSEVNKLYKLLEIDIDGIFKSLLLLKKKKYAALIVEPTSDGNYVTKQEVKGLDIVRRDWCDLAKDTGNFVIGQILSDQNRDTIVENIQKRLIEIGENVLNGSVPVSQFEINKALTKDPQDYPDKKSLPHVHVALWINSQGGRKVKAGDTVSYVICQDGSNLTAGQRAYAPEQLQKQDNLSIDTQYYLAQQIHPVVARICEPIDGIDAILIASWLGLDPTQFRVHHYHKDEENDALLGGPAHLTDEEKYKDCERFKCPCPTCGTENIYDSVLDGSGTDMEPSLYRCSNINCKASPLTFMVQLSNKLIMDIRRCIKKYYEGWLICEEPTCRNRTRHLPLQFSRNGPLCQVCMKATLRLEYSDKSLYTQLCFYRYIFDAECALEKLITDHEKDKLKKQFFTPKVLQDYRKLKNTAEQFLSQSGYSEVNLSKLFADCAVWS
T2 sequence (Q58D13 whole entry partner): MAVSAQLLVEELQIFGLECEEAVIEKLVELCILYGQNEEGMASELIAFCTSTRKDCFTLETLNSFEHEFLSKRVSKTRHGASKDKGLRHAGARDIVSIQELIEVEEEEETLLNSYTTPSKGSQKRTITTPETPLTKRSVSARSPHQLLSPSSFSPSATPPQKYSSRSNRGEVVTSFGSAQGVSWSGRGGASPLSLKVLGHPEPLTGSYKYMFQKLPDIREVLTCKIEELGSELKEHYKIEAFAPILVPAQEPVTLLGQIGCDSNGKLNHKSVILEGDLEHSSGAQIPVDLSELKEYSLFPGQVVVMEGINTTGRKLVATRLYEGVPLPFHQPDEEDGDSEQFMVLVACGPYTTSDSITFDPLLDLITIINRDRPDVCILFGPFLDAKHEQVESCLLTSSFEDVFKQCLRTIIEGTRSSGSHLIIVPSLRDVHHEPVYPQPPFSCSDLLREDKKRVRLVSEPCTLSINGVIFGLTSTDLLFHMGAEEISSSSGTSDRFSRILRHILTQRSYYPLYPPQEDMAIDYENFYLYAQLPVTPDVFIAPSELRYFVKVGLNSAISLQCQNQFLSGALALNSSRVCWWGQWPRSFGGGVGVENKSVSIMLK
T2 sequence (A0A3Q1MF00 1-418 partner): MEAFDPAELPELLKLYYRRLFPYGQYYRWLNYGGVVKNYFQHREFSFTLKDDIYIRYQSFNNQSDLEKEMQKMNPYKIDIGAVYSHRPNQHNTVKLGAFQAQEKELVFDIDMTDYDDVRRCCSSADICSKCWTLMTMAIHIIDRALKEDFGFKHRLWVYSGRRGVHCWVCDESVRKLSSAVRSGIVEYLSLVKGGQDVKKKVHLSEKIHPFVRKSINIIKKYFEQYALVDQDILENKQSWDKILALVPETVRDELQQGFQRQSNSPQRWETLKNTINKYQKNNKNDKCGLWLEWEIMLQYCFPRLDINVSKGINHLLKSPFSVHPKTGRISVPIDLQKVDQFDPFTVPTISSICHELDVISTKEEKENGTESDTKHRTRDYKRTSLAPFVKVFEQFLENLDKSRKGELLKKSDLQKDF
T2 sequence (A0JNF4 1-506 partner): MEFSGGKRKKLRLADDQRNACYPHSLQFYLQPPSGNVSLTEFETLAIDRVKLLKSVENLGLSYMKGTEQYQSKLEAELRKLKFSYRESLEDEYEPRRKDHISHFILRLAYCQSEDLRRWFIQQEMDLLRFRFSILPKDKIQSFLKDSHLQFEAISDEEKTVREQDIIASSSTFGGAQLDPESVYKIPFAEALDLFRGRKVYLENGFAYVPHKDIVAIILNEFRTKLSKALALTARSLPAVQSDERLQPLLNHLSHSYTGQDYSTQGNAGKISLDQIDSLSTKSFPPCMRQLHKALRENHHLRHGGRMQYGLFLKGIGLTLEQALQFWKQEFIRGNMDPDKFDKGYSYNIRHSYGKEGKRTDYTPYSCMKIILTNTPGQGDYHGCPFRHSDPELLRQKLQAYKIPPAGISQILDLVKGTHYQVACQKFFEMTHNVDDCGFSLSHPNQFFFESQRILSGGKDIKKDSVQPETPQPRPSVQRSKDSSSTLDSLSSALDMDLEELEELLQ

In the case of `CC1(C)[C@@H](O[C@H]2O[C@H](C(=O)O)[C@@H](O)[C@H](O)[C@H]2O[C@@H]2O[C@H](C(=O)O)[C@@H](O)[C@H](O)[C@H]2O)CC[C@]2(C)[C@H]3C(=O)C=C4[C@@H]5C[C@@](C)(C(=O)O)CC[C@]5(C)CC[C@@]4(C)[C@]3(C)CC[C@@H]12` [compound 1, 3-O-(2-O-β-D-glucopyranuronosyl-α-D-glucopyranuronosyl)-18β-glycyrrhetinic acid], the activity at 100 µM on human pol λ [1], on calf pol α and at human pol κ [2] was less than 50% throughout.

For `CC1(C)[C@@H](O[C@@H]2O[C@H](C(=O)O)[C@@H](O)[C@H](O)[C@H]2O[C@@H]2O[C@H](C(=O)O)[C@@H](O)[C@H](O)[C@H]2O)CC[C@]2(C)[C@H]3C(=O)C=C4[C@@H]5C[C@@](C)(C(=O)O)CC[C@]5(C)CC[C@@]4(C)[C@]3(C)CC[C@@H]12` [compound 2, dipotassium glycyrrhizate], the activity at 100 µM on human pol λ [1] and on calf pol α was less than 50% throughout.

Turning to `CC1(C)[C@@H](O)CC[C@]2(C)[C@H]3C(=O)C=C4[C@@H]5C[C@@](C)(C(=O)O)CC[C@]5(C)CC[C@@]4(C)[C@]3(C)CC[C@@H]12` [compound 3, Glycyrrhetinic acid], the IC50 against human pol γ was determined as 19.3 µM; against human pol κ [3], 15.8 µM; against human pol λ [4], 13.7 µM.

In general, IC50 refers to the concentration at which inhibition is half-maximal. Read a high IC50 as lower potency.

For the origin of these results see paper PMC3138047 (Evidence-based Complementary and Alternative Medicine : eCAM, 2011).
